Experimental data published in patent US12241902B2, “Probes for detection of copper” (The Regents of the University of California, priority 2019, dated 2025).
Where “and” joins values, the source holds several entries; their conditions need not be identical. Equal entries are not always repeated.

Legend:
[1] = UV-vis absorption and emission measurements in aqueous buffer; type: physicochemical
Procedure: UV-vis absorption and emission measurements. FCP-1 stock solution in DMSO (5 mM) was prepared, aliquoted and stored at […]. For each spectroscopic measurement, a fresh aliquot was diluted to 500 μM by DMSO and further diluted with PBS containing 2 mM GSH/PEG-400 mixture (3:2, v/v) to prepare the sensing solution with 5 μM of FCP-1. The sensing solution was pre-incubated in a water bath at 37° C., and then [Cu(CH3CN)](PF6) in MeCN or other metal ions in H2O was added. The solution mixture was kept at 37° C. and taken out for UV-vis absorption or emission spectroscopic measurements in quartz cuvette at predetermined time intervals. Emission spectra were corrected using coumarin 153 as secondary emission standard (4). Photoluminescence quantum yield (PLQY) was determined using fluorescein in 0.1 M NaOH solution (0.95; λex=496 nm). FRET efficiency from the fluorescein moiety to rhodamine moiety of FCP-1 was estimated by [1−(PLQY of FCP-1/PLQY of FL-TPA)].
FCP-1 in PBS buffer containing glutathione (2 mM) and PEG-400 (40%, v/v) was evaluated. […] The first two absorption maxima corresponded to the absorption of the fluorescein moiety, as similar absorption maxima at 460 and 489 nm were found in the absorption spectra of FL-TPA (FIG. 4), whereas the lowest energy absorption at 552 nm originated from the rhodamine moiety (FIG. 4). […] Together with the significant contribution of the lower-energy fluorescence from the excitation at 450-500 nm, which is in the region of FL-TPA absorption (FIG. 6), the data support the occurrence of FRET from the fluorescein donor to the rhodamine acceptor. Using FL-TPA as a reference FRET donor compound (FIG. 7) with assumption that quenching of donor fluorescence originated only from the FRET process, the FRET efficiency in the FCP-1 cassette is estimated to be 84%.

[2] = tested on: labile Cu(I) pools in HEK 293T cells; experiment: Ratiometric confocal fluorescence imaging of labile Cu(I) in HEK 293T cells; type: cell-based, Human; details: CuCl2 25 μM, FL-TPA 5 μM, λex 488 nm (FIG. 15)
Procedure: (A) Confocal fluorescence microscopy images of HEK 293T cells pretreated with solvent vehicle control or varying concentrations of CuCl2 in complete medium for 18 h. The cells were then washed with PBS, incubated with FCP-1 (5 μM) in DPBS for 45 min and then imaged. (B) Average cellular ratiometric emission ratios, represented by Fgreen/Forange, as determined from imaging experiments in (A) performed in triplicate. (C) Confocal fluorescence microscopy images of HEK 293T cells pretreated with solvent vehicle control or BCS (100 μM) in complete medium for 18 h. The cells were then washed with PBS, incubated with FCP-1 (5 μM) in DPBS for 45 min and then imaged. (D) Average cellular ratiometric emission ratios of FCP-1, Fgreen/Forange, as determined from experiments in (C) performed in triplicate. […] (E) ICP-MS measurement to determine total cellular ^63Cu levels in HEK293T cells under copper supplementation and depletion relative to the control (with normalization of different cell numbers by total cellular ^31P level). Error bars denote standard derivation (SD; n=3). *p<0.05, **p<0.01, ***p<0.001, ****p<0.0001 and *****p<0.00001.
Cell culture. Following cell cultures were grown: Human embryonic kidney (HEK 293T) cells were maintained in Dulbecco's Modified Eagle Medium (DMEM) supplemented with 10 vol % fetal bovine serum (FBS), 1 vol % GlutaMax (Gibco) and 1 vol % non-essential amino acids (NEAA, Gibco). Ctrl1^+/+ and Ctr1^−/− MEF cells were maintained in DMEM with 10 vol % FBS, 1 vol % non-essential amino acids, 1 vol % sodium pyruvate and 0.1 vol % 2-mercaptoethanol or DMEM supplemented with 10 vol % FBS and 1× Penicillin-Streptomycin. Human cervical epithelial carcinoma (HeLa) was maintained in DMEM medium supplemented with 1 vol % GlutaMAX and 10 vol % FBS. […]
Confocal fluorescence microscopy imaging. For confocal fluorescence imaging experiments of HEK293T, MEF Ctr1^+/+ and Ctr1^−/− and HeLa cells, the cells were plated on 8-well Lab Tek borosilicate chambered coverglass slides (Nunc), and allowed to grow to ca. 60% confluency before performing the cell imaging experiments. […] For quantification, a threshold value was set as background and the average intensity of the whole image was measured by ImageJ. […]
Given the metal and oxidation state-selective and sensitive response of FCP-1 to Cu(I), this probe was examined for ratiometric fluorescence imaging of labile Cu(I) pools in living cells. […] The observed increases and decreases in labile Cu(I) levels upon copper supplementation (CuCl2) and copper depletion (BCS) treatments, respectively, as measured by FCP-1 imaging were supported by complementary ICP-MS measurements of total copper levels showing expected increases and decreases in the total copper pool (FIG. 9, panel C).

[3] = tested on: labile Cu(I) in Ctr1^+/+ MEFs; experiment: Confocal fluorescence imaging of labile Cu(I) in Ctr1+/+ MEFs; type: cell-based, mouse; details: FL-TPA 5 μM, 45 min, λex 488 nm
Procedure: (A) Confocal fluorescence microscopy images of Ctr1^+/+ MEFs and Ctr1^−/− MEFs treated with solvent control, CuCl2 (100 or 300 μM) or BCS (500 μM) in complete medium for 8 h, washed with complete medium and PBS, incubated with FCP-1 (5 μM) in DPBS for 45 min, and then imaged with λex=458 nm. (B) Average cellular ratiometric emission ratios of FCP-1, Fgreen/Forange, as determined from experiments performed in triplicate. (C) Total cellular ^63Cu levels were determined by ICP-MS experiments (with normalization of different cell numbers by total cellular ^31P level). (D) Confocal fluorescence microscopy images of Ctr1^+/+ MEFs and Ctr1^−/− MEFs incubated with FL-TPA (5 μM) in DPBS for 45 min. The cells were then imaged with λex=488 nm. (E) Average cellular fluorescence intensity of FL-TPA, FFL-TPA, determined from experiments performed in triplicate with λex=488 nm. Error bars denote SD (n=3). *p<0.05, **p<0.01 and ***p<0.001.
Cell culture. Following cell cultures were grown: Human embryonic kidney (HEK 293T) cells were maintained in Dulbecco's Modified Eagle Medium (DMEM) supplemented with 10 vol % fetal bovine serum (FBS), 1 vol % GlutaMax (Gibco) and 1 vol % non-essential amino acids (NEAA, Gibco). Ctrl1^+/+ and Ctr1^−/− MEF cells were maintained in DMEM with 10 vol % FBS, 1 vol % non-essential amino acids, 1 vol % sodium pyruvate and 0.1 vol % 2-mercaptoethanol or DMEM supplemented with 10 vol % FBS and 1× Penicillin-Streptomycin. Human cervical epithelial carcinoma (HeLa) was maintained in DMEM medium supplemented with 1 vol % GlutaMAX and 10 vol % FBS. All cells were incubated in 5% CO2 humidified air and subcultured at 80% confluence.
Confocal fluorescence microscopy imaging. For confocal fluorescence imaging experiments of HEK293T, MEF Ctr1^+/+ and Ctr1^−/− and HeLa cells, the cells were plated on 8-well Lab Tek borosilicate chambered coverglass slides (Nunc), and allowed to grow to ca. 60% confluency before performing the cell imaging experiments. The confocal imaging was performed with a Zeiss laser scanning microscope 710 with 20× or 63× oil-immersion objective lens using Zen 2009 software (Carl Zeiss). FCP-1 was excited with 458 nm with an Ar laser, and the emissions were collected using a META detector between 465 and 541 nm (Fgreen), and between 559 and 710 nm (Forange). DRAQ-5 was excited with a 633 nm He Ne laser, and its emission was collected using a META detector between 661 and 759 nm. Image analysis was performed using ImageJ, with ratiometric images generated by the Ratio Plus plugin of ImageJ. For quantification, a threshold value was set as background and the average intensity of the whole image was measured by ImageJ. All experiments were performed in triplicate, and statistical analyses were performed with a two-tailed Student's t-test (MS excel).
Having established that FCP-1 is sensitive to endogenous pools of labile Cu(I) under basal conditions and can respond to changes in labile Cu(I) pools upon pharmacological copper supplementation and/or depletion, the application of FCP-1 to visualize alterations in endogenous labile Cu(I) pools through genetic manipulation was explored. To this end, comparative FCP-1 imaging was performed in mouse embryonic fibroblast cells that are either Cu-replete (Ctr1^+/+ MEFs) or Cu-deficient (Ctr1^−/− MEFs) through knockout of the high-affinity copper transporter CTR1 (64-66).
Complementary ICP-MS measurements confirm that total copper levels in Ctr1^−/− MEFs are lower than Ctr1^+/+ MEFs (FIG. 12C). […]

| Compound | absorption maxima ([1]; PBS buffer containing glutathione (2 mM) and PEG-400 (40%, v/v)) | detection of changes in labile copper with exogenous copper addition [2] | ability to distinguish basal labile Cu(I) levels in Ctr1+/+ and Ctr1−/− MEFs [3] | absorption at 458 nm ([1]; 5 μM in PBS, 2 mM GSH, 40 vol % PEG-400) |
| --- | --- | --- | --- | --- |
| COC(=O)c1ccccc1-c1c2ccc(=O)cc-2oc2cc(OCc3cccc(CN(Cc4ccccn4)Cc4ccccn4)n3)ccc12 [FL-TPA] | 460 nm and 489 nm | able to detect changes in labile copper | unable to distinguish differences | – |
| N-[9-(2-carboxyphenyl)-6-(1-piperazinyl)-3H-xanthen-3-ylidene]-N-ethyl-ethanaminium [Pz-rhodamine, reference compound] | – | – | – | weak absorption |
